Experimental data reported in patent publication US20220324911A1, “THERAPEUTIC PEPTIDES” (COHBAR, INC., priority 2019, published 2022).
Non-standard residues stand in square brackets, D forms with d. No end group written: not given here.

Tests used:
[1] = test system: 3T3-L1 adipocytes; test: Free Fatty Acid Levels in 3T3-L1 Adipocytes; format: cell-based, mouse; conditions: for Free Fatty Acid Levels Expressed as a Percent Isoproterenol Control, Percent of Control Value: peptides at 25 μM, 20-22 hours then isoproterenol (1 nM) 3 hours
Description: Following 12-15 days' differentiation, test peptides were added to a final concentration of 25 μM and incubated for 20-22 hours in Adipocyte Maintenance Medium. After 20-22 hours, isoproterenol (1 nM) was added to all wells except untreated controls and test peptides were replenished. Cells were incubated for a further 3 hours in Assay Buffer (Zen-Bio). Free fatty acid concentrations in the media were determined using a Free Fatty Acid Assay Kit (Zen-Bio) according to the manufacturer's instructions using a plate reader (540 nm). Absorbance values were corrected for untreated background and expressed relative to isoproterenol treated cells. Treatment with isoproterenol (1 nM) alone was used as the free fatty acid level stimulatory control. The relative standard deviation of the isoproterenol control was <10%. […] Free fatty acid levels for insulin (100 nM) treatment were <5% of the isoproterenol control value.

[2] = test system: MDA-MB-231 cells; test: Caspase 3/7 Activity in MDA-MB-231 Cells (Caspase-Glo 3/7); format: cell-based, human; conditions: peptides at 10 μM, 18 hours, relative to DMSO control
Description: The effect of the peptides on cell death/survival can be assessed using a caspase-3 assay. Peptides were dissolved with DMSO at 10 mM stock. […] Staurosporine (Selleckchem) was dissolved with DMSO at 1 mM stock. Caspase-Glo 3/7 Assay Reagent was purchased from Promega (Madison, Wis.). MDA-MB-231 human breast cancer cell line was purchased from American Type Culture Collection (Manassas, Va.). MDA-MB-231 cells were grown in DMEM Medium supplemented with 10% FBS. 100 μg/ml penicillin and 100 μg/ml streptomycin were added to the culture medium. Cultures were maintained at 37° C. in a humidified atmosphere of 5% C02 and 95% air. MDA-MB-231 cells were incubated with test peptides in duplicate at 10 μM at 37° C. in a humidified atmosphere of 5% C02 and 95% air for 18 hours. 25 μl of Caspase-Glo 3/7 Assay Reagent was added to each well and incubated at 37° C., 5% C02 for 1 hour. Luminescence for each sample well on the plate was measured by Envision 2104 Multilabel Reader (PerkinElmer, Santa Clara, Calif.). Activity was calculated relative to DMSO control.

[3] = test system: MCF-7 cells; conditions: human, 72 h, 10 µM
Description: Peptides and reference compound staurosporine (Selleckchem) were dissolved with DMSO at 10 mM stock. CellTiter 96® AQueous One Solution Reagent (MTS assay reagent) was purchased from Promega (Madison, Wis.). MCF-7 human breast cancer cell line was purchased from American Type Culture Collection (Manassas, Va.). MCF-7 cells were grown in EMEM Medium supplemented with 10% FBS and 0.01 mg/ml human recombinant insulin. 100 μg/ml penicillin and 100 μg/ml streptomycin were added to the culture medium. Cells were incubated with test peptides at 10 μM at 37° C. in a humidified atmosphere of 5% C02 and 95% air for 72 hours. 5 μl of CellTiter 96® AQueous One Solution Reagent (MTS assay reagent) was added to each well and incubated at 37° C., 5% C02 for 5 hours. Absorbance at 492 nm was recorded by Envision 2104 Multilabel Reader. Treatment with DMSO alone was used as the cell viability activity control.

[4] = test system: MDA-MB-231 cells; test: MTS Assay in MDA-MB-231 Cells (cell viability); format: cell-based; conditions: human, 72 h
Description: Test compounds and reference compound staurosporine (Selleckchem) were all dissolved with DMSO at 10 mM stock. […] Activity was calculated relative to DMSO control. […] Cell viability was 3% of the DMSO control value for Staurosporine (10 uM).

| Substance | Free Fatty Acid Levels Expressed as a Percent Isoproterenol Control, Percent of Control Value [1] | also measured |
| --- | --- | --- |
| 18 (QTVPNKPTGPKLPNLH) [compound 18] | 109% | – |
| MQTVPNKPTGPKLPNLH [compound 17] | 112% | Caspase 3/7 Activity, Percent of Control Activity [2]: 65%; MTS Assay cell viability, Percent of Control Activity [3]: 68%; MTS Assay cell viability, Percent of Control Activity [4]: 85% |
| 20 (QTVPNKPT[dA]PKLPN[dA]) [compound 20] | 108% | – |
| 5 ([dA]LIQCQSGHLR) [compound 5] | 159% | – |
| 19 (QTVPNKPT[dA]PKLPNLH) [compound 19] | 89% | – |
| insulin [reference compound] | – | Free fatty acid levels, % of the isoproterenol control value ([1]; insulin 100 nM): < 5% |
| 13 (TGWARGLISTGRV) [compound 13] | 87% | – |
| 3 (SLLIQCQSGHLR) [compound 3] | 136% | – |
| 8 (TCWLIVDIGLLIVSSVF) [compound 8] | 129% | – |
| 10 ([dA]TCWLIVDIGLLIVSS[dA]F) [compound 10] | 138% | – |
| MSLLIQCQSGHLR [compound 2] | 162% | Caspase 3/7 Activity, Percent of Control Activity [2]: 92%; MTS Assay cell viability, Percent of Control Activity [3]: 59%; MTS Assay cell viability, Percent of Control Activity [4]: 90% |
| 15 (TGW[dA]RGLISTGR) [compound 15] | 102% | – |
| 14 (TGWARGLISTGR; not fully specified) [compound 14] | 102% | – |
| 4 (LLIQCQSGHLR) [compound 4] | 141% | – |
| 9 ([dA]TCWLIVDIGLLIVSSVF) [compound 9] | 125% | – |
| MTCWLIVDIGLLIVSSVF [compound 7] | 160% | Caspase 3/7 Activity, Percent of Control Activity [2]: 56%; MTS Assay cell viability, Percent of Control Activity [3]: 52%; MTS Assay cell viability, Percent of Control Activity [4]: 88% |
| MTGWARGLISTGRV [compound 12] | 107% | Caspase 3/7 Activity, Percent of Control Activity [2]: 73%; MTS Assay cell viability, Percent of Control Activity [3]: 62%; MTS Assay cell viability, Percent of Control Activity [4]: 89% |
